Assay results taken from US8258151B2, “3-aminoimidazo [1,2-A] pyridine derivatives as SGLT inhibitors” (Merck Patent GmbH, priority 2006, dated 2012).

Columns and labels:
[1] = molecular target: T1, SGLT2 (Homo sapiens, UniProt P31639); assay: SGLT2 activity measurement: 14C-AMG uptake in BHK cells transfected with SGLT2; assay type: cell-based; conditions: AMG 2 mM, 37° C., 90 min
T1 construct: expressed in transfected cells
T1 sequence (P31639 1-672): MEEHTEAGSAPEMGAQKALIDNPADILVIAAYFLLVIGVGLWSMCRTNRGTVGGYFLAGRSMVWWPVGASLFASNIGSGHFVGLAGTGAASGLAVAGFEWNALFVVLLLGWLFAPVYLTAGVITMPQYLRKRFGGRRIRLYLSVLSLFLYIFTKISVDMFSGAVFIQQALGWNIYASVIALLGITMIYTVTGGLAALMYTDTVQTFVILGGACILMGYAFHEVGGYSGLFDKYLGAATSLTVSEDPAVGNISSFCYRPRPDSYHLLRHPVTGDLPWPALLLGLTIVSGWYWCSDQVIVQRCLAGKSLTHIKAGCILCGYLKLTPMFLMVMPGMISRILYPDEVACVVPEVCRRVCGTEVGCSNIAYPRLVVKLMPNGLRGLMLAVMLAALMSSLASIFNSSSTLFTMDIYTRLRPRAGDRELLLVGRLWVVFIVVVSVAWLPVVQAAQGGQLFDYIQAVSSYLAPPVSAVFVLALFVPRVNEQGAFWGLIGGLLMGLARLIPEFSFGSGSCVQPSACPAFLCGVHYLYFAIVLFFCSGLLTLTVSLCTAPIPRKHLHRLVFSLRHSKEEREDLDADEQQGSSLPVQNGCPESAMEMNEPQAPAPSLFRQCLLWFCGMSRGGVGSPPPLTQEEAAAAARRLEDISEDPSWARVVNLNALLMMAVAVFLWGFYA
Text: (§1) The compounds can be tested on their SGLT inhibition properties by means of BHK cells expressing SGLT1 and SGLT2. The production of the cells and the testing can be carried out as described below.
To construct the SGLT2 expression vector (KL224), the SLC5A2 gene (homologous to NM_003041) was amplified from a cDNA library using standard PCR technology and cloned over NheI/XhoI sites into PCI-neo expression vector (Promega) containing neomycin as a selection marker. In this vector, transcription used the enhancer/promoter of human cytomegalovirus and the SV40 polyadenylation signal.
(§2) The final vector KL224 together with an additional vector containing a dihydrofolate reductase gene as a selection marker was introduced into cells. Transfection into BHK21 cells (ATCC CCL-10), cultivated in DMEM medium (GIBCO/BRL), supplemented with 10% foetal calf serum (FCS) and 20 mM glutamine, was carried out using calcium phosphate transfections according to Graham, F. L. and van der Ebb, A. J. (1973), Virology 52: 456 with 5-20 μg of uncut plasmids for 10^7 cells. Stable transfectants were selected in medium containing 1 mg/ml of G418 (GIBCO/BRL) and 20-5000 nM methotrexate as final concentration, where only cells which expressed the neomycin gene and overexpressed the dhfr gene were able to grow. After growth for 2-3 weeks, the cells were cloned (0.5 cells/well) and the clones were investigated for SGLT expression in the radioactive uptake assay.
Principally, uptake of ^14C-α-methyl-D-glucopyranoside (AMG) in, for example, Xenopus oocytes injected with the corresponding cRNA has been described (for example Wen-Sen Lee et al. (1994), J. Biol. Chem. 269, 12032-12039; Guofeng You et al. (1995), J. Biol. Chem. 270, 29365-29371).
(§3) A 96-well cell-based assay was developed and adapted to HTS requirements:
(§4) BHK cells (transfected with SGLT1 or SGLT2) were seeded into 96-well microtitre plates (Cultureplates, Perkin Elmer). After at least 24 h, medium was removed and the cell layer was washed with assay buffer (140 mM NaCl, 2 mM KCl, 1 mM CaCl2, 1 mM MgCl2, 10 mM HEPES, 5 mM Tris, adjusted with 1 M KOH to pH 7.4). After addition of 40 μl of assay buffer, 50 μl of AMG (50 μM for SGLT1 and 2 mM for SGLT2) in the presence or absence of compounds, the cells were incubated in a total volume of 100 μl at 37° C. for 90 min. Supernatant was removed by suction and discarded. The cells were washed and lysed by addition of 50 μl water. After 10 minutes at room temperature 200 μl Microscint 40 (Perkin Elmer) were added. The radioactivity was counted in a Topcount microplate scintillation counter (Perkin Elmer). The non-specific uptake was determined in sodium-free assay buffer (266 mM sucrose, 2 mM KCl, 1 mM CaCl2, 1 mM MgCl2, 10 mM HEPES, 5 mM Tris, adjusted with 1 M KOH to pH 7.4).

[2] = molecular target: T2, SGLT1 (Homo sapiens, UniProt P13866); assay: SGLT1 activity measurement: 14C-AMG uptake in BHK cells transfected with SGLT1; assay type: cell-based; conditions: AMG 50 μM, 37° C., 90 min
T2 construct: expressed in transfected cells
T2 sequence (P13866 1-664): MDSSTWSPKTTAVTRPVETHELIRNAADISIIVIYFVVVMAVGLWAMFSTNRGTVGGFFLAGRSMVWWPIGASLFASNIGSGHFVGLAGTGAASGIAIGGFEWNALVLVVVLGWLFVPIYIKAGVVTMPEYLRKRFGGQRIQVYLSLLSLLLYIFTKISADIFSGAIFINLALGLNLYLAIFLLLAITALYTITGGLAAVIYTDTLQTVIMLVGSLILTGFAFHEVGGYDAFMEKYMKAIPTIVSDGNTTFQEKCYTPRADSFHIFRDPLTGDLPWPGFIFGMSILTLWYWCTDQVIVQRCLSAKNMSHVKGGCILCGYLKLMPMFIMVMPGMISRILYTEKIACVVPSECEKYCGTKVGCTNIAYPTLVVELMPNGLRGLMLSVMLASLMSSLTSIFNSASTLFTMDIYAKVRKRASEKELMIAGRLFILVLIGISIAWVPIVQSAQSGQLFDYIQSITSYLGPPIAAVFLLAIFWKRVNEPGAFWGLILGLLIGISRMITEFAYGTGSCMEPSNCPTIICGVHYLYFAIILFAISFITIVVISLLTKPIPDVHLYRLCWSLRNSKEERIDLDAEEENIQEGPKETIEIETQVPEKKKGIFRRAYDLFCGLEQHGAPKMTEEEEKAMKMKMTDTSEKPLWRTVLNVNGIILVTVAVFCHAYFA
Text: as §1
To construct the SGLT1 expression vector (KL225), the SLC5A1 gene (homologous to NM_000343) was amplified from a cDNA library using standard PCR technology and cloned over NheI/XhoI sites into pcDNA3.1 expression vector (Invitrogen) containing neomycin as a selection marker. In this vector, transcription uses the enhancer/promoter of human cytomegalovirus.
as §2, with “KL225” for “KL224”, “assay. […]” for “assay.”
as §3, §4

Compound: CCc1cc(OC)cc(OCC(N)=O)c1-c1nc2c(F)cc(F)cn2c1Nc1c(C)cccc1C [Compound A221, 2-[2-(Aminocarbonylmethoxy)-4-methoxy-6-ethylphenyl]-3-(2,6-dimethylphenylamino)-6,8-difluoroimidazo[1,2-a]pyridine]
- IC50 [1]: 10 to 1000 nM
- IC50 [2]: 1000 to 10000 nM

Compound: CCc1cc(OC)cc(OCC(N)=O)c1-c1nc2ccc(F)cn2c1Nc1c(C)ccc(Cl)c1C [Compound A217, 2-[2-(Aminocarbonylmethoxy)-4-methoxy-6-ethylphenyl]-3-(3-chloro-2,6-dimethylphenyl-amino)-6-fluoroimidazo[1,2-a]pyridine]
- IC50 [1]: 10 to 1000 nM
- IC50 [2]: 1000 to 10000 nM

Compound: CCc1cc(OC)cc(OCC(N)=O)c1-c1nc2c(F)cc(F)cn2c1Nc1c(C)cc(F)cc1C [Compound A255, 2-[2-(Aminocarbonylmethoxy)-4-methoxy-6-ethylphenyl]-3-(2,6-dimethyl-4-fluorophenyl-amino)-6,8-difluoroimidazo[1,2-a]pyridine]
- IC50 [1]: 10 to 1000 nM
- IC50 [2]: 1000 to 10000 nM

Compound: Cc1cccc(C)c1Nc1c(-c2ccccc2OCC(N)=O)nc2cc(C#N)ccn12 [Compound A210, 2-[2-(Aminocarbonylmethoxy)phenyl]-3-(2,6-dimethylphenylamino)-7-cyanoimidazo[1,2-a]-pyridine]
- IC50 [1]: > 10000 nM
- IC50 [2]: > 10000 nM

Compound: COc1cc(C)c(-c2nc3ccc(F)cn3c2Nc2c(C)cc(Cl)cc2C)c(OCC(N)=O)c1 [Compound A222, 2-[2-(Aminocarbonylmethoxy)-4-methoxy-6-methylphenyl]-3-(4-chloro-2,6-dimethylphenyl-amino)-6-fluoroimidazo[1,2-a]pyridine]
- IC50 [1]: 10 to 1000 nM
- IC50 [2]: 1000 to 10000 nM

Compound: COc1cc(C)c(-c2nc3ccc(F)cn3c2Nc2c(C)cc(F)cc2C)c(OCC(N)=O)c1 [Compound A234, 2-[2-(Aminocarbonylmethoxy)-4-methoxy-6-methylphenyl]-3-(2,6-dimethyl-4-fluorophenyl-amino)-6-fluoroimidazo[1,2-a]pyridine]
- IC50 [1]: 10 to 1000 nM
- IC50 [2]: 1000 to 10000 nM

Compound: CCc1cc(OC)cc(OCC(N)=O)c1-c1nc2ccccn2c1Nc1c(C)cc(F)cc1C [Compound A203, 2-[2-(Aminocarbonylmethoxy)-4-methoxy-6-ethylphenyl]-3-(2,6-dimethyl-4-fluorophenyl-amino)imidazo[1,2-a]pyridine]
- IC50 [1]: 10 to 1000 nM
- IC50 [2]: 1000 to 10000 nM

Compound: CCc1cc(OC2CCCCO2)cc(OCC(N)=O)c1-c1nc2ccccn2c1Nc1c(C)cccc1C (stereo not drawn) [Compound A166, 2-[2-(Aminocarbonylmethoxy)-4-(tetra-hydropyran-2-yloxy)-6-ethylphenyl]-3-(2,6-dimethylphenylamino)imidazo[1,2-a]pyridine]
- IC50 [1]: 10 to 1000 nM
- IC50 [2]: > 10000 nM

Compound: COc1cc(C)c(-c2nc3ccc(F)cn3c2Nc2c(C)cccc2C)c(OCC(N)=O)c1OC [Compound A201, 2-[2-(Aminocarbonylmethoxy)-3,4-dimethoxy-6-methylphenyl]-3-(2,6-dimethylphenylamino)-6-fluoroimidazo[1,2-a]pyridine]
- IC50 [1]: 1000 to 10000 nM
- IC50 [2]: > 10000 nM

Compound: COc1cc(Cl)c(-c2nc3ccc(F)cn3c2Nc2c(C)cccc2C)c(OCC(N)=O)c1 [Compound A197, 2-[2-(Aminocarbonylmethoxy)-4-methoxy-6-chlorophenyl]-3-(2,6-dimethylphenylamino)-6-fluoroimidazo[1,2-a]pyridine]
- IC50 [1]: 10 to 1000 nM
- IC50 [2]: > 10000 nM

Compound: Cc1cccc(C)c1Nc1c(-c2c(C)cc(OC3COC(=O)O3)cc2OCC(N)=O)nc2ccc(F)cn12 (stereo not drawn) [Compound A190, 2-[2-(Aminocarbonylmethoxy)-4-(2-oxo-1,3-dioxolan-4-yloxy)-6-methylphenyl]-3-(2,6-dimethylphenylamino)-6-fluoroimidazo[1,2-a]-pyridine]
- IC50 [1]: 10 to 1000 nM
- IC50 [2]: > 10000 nM

Compound: CCc1cc(OC)cc(OCC(N)=O)c1-c1nc2ccc(C(=O)O)cn2c1Nc1c(C)cccc1C [Compound A223, 2-[2-(Aminocarbonylmethoxy)-4-methoxy-6-ethylphenyl]-3-(2,6-dimethylphenylamino)-6-carboxyimidazo[1,2-a]pyridine]
- IC50 [1]: 1000 to 10000 nM

Compound: COc1cc(C)c(-c2nc3c(O)cccn3c2Nc2c(C)cccc2C)c(OCC(N)=O)c1 [Compound A193, 2-[2-(Aminocarbonylmethoxy)-4-methoxy-6-methylphenyl]-3-(2,6-dimethylphenylamino)-8-hydroxyimidazo[1,2-a]pyridine]
- IC50 [1]: 1000 to 10000 nM

Compound: Cc1cccc(C)c1Nc1c(-c2c(C)cc(OCCN(C)C)cc2OCC(N)=O)nc2ccccn12 [Compound A119, 2-[2-(Aminocarbonylmethoxy)-4-(2-dimethyl-aminoethoxy)-6-methylphenyl]-3-(2,6-dimethyl-phenylamino)imidazo[1,2-a]pyridine]
- IC50 [1]: 1000 to 10000 nM

Compound: COc1cc(OCC(N)=O)c(-c2nc3ccc(F)cn3c2Nc2c(C)cccc2C)cc1OC [Compound A189, 2-[2-(Aminocarbonylmethoxy)-4,5-dimethoxy-phenyl]-3-(2,6-dimethylphenylamino)-6-fluoro-imidazo[1,2-a]pyridine]
- IC50 [1]: 1000 to 10000 nM

Compound: Cc1cccc(C)c1Nc1c(-c2ccccc2OCC(N)=O)nc2cccc(Cl)n12 [Compound A12, 2-[2-(Aminocarbonylmethoxy)phenyl]-3-(2,6-dimethylphenylamino)-5-chloroimidazo[1,2-a]-pyridine]
- IC50 [1]: 1000 to 10000 nM
